Where “and” joins values, the source holds several entries; their conditions need not be identical. Identical values can stand only once.
Tested on: ANGIOTENSIN II (AII) VASOPRESSOR RESPONSE
Assay: AII Challenge: blockade of the angiotensin II vasopressor response in conscious spontaneously hypertensive rats
Assay type: in vivo, rat (Male Okamoto-Aoki SHR)
Excerpt: By administering a compound of this invention to a rat, and then challenging with angiotensin II, a blockage of the vasopressor response is realized.
Conscious Male Okamoto-Aoki SHR, 16-20 weeks old, weighing approximately 330 g are purchased from Charles River Labs (Wilmington, Mass.). Conscious rats are restrained in a supine position with elastic tape. The area at the base of the tail is locally anesthetized by subcutaneous infiltration with 2% procaine. The ventral caudal artery and vein are isolated, and a cannula made of polyethylene (PE) 10-20 tubing (fused together by heat) is passed into the lower abdominal aorta and vena cava, respectively. The cannula is secured, heparinized (1,000 I.U./ml), sealed and the wound is closed. The animals are placed in plastic restraining cages in an upright position. The cannula is attached to a Statham P23Db pressure transducer, and pulsatile blood pressure is recorded to 10-15 minutes with a Gould Brush recorder. (Chan et al., (Drug Development Res., 18:75-94, 1989).
Angiotensin II (human sequence, Sigma Chem. Co., St. Louis, Mo.) of 0.05 and 0.1 ug/kg i.v. is injected into all rats (predosing response). Then a test compound, vehicle or a known angiotensin II antagonist is administered i.v., i.p. or orally to each set of rats. The two doses of angiotensin II are given to each rat again at 30, 60, 90, 120, 180, 240 and 300 minutes post dosing the compound or vehicle. The vasopressor response of angiotensin II is measured for the increase in systolic blood pressure in mmHg. The percentage of antagonism or blockade of the vasopressor response of angiotensin II by a compound is calculated using the vasopressor response (increase in systolic blood pressure) of angiotensin II of each rat predosing the compound as 100%. A compound is considered active if at 30 mg/kg i.v. it antagonized at least 50% of the response.

[1] = 3 mg/kg i.v., AII 0.05 mcg/kg IV, 30 min post dose
[2] = 3 mg/kg i.v., AII 0.05 mcg/kg IV, 60 min post dose
[3] = 3 mg/kg i.v., AII 0.05 mcg/kg IV, 90 min post dose
[4] = 3 mg/kg i.v., AII 0.05 mcg/kg IV, 120 min post dose
[5] = 3 mg/kg i.v., AII 0.05 mcg/kg IV, 180 min post dose
[6] = 3 mg/kg i.v., AII 0.05 mcg/kg IV, 240 min post dose
[7] = 3 mg/kg i.v., AII 0.05 mcg/kg IV, 300 min post dose
[8] = 3 mg/kg i.v., AII 0.1 mcg/kg IV, 30 min post dose
[9] = 3 mg/kg i.v., AII 0.1 mcg/kg IV, 60 min post dose
[10] = 3 mg/kg i.v., AII 0.1 mcg/kg IV, 90 min post dose
[11] = 3 mg/kg i.v., AII 0.1 mcg/kg IV, 120 min post dose
[12] = 3 mg/kg i.v., AII 0.1 mcg/kg IV, 180 min post dose
[13] = 3 mg/kg i.v., AII 0.1 mcg/kg IV, 240 min post dose
[14] = 3 mg/kg i.v., AII 0.1 mcg/kg IV, 300 min post dose
[15] = 1 mg/kg i.v., AII 0.05 mcg/kg IV, 30 min post dose
[16] = 1 mg/kg i.v., AII 0.1 mcg/kg IV, 30 min post dose
[17] = 29 mg/kg i.v., AII 0.05 mcg/kg IV, 60 min post dose
[18] = 29 mg/kg i.v., AII 0.05 mcg/kg IV, 90 min post dose
[19] = 29 mg/kg i.v., AII 0.05 mcg/kg IV, 120 min post dose
[20] = 29 mg/kg i.v., AII 0.05 mcg/kg IV, 180 min post dose
[21] = 29 mg/kg i.v., AII 0.05 mcg/kg IV, 240 min post dose
[22] = 29 mg/kg i.v., AII 0.05 mcg/kg IV, 300 min post dose
[23] = 29 mg/kg i.v., AII 0.1 mcg/kg IV, 60 min post dose
[24] = 29 mg/kg i.v., AII 0.1 mcg/kg IV, 90 min post dose
[25] = 29 mg/kg i.v., AII 0.1 mcg/kg IV, 120 min post dose
[26] = 29 mg/kg i.v., AII 0.1 mcg/kg IV, 180 min post dose
[27] = 29 mg/kg i.v., AII 0.1 mcg/kg IV, 240 min post dose
[28] = 29 mg/kg i.v., AII 0.1 mcg/kg IV, 300 min post dose

CCCCc1nc2ccc(C3CC4C(c5ccc(C)cc5)=NOC4O3)cc2c(=O)n1Cc1ccc(-c2ccccc2-c2nnn[nH]2)cc1 (centres unmarked) [Example 12]
% Inhibition [1]: 56% | Average Change [1]: 16.5 mmHg | Control Before AII (single rat) [1]: 220 mmHg and 255 mmHg | Response After AII (single rat) [1]: 233 mmHg and 275 mmHg | Response Change (single rat) [1]: 13 mmHg and 20 mmHg | % Inhibition [2]: 53% | Average Change [2]: 17.5 mmHg | Control Before AII (single rat) [2]: 215 mmHg and 245 mmHg | Response After AII (single rat) [2]: 235 mmHg and 260 mmHg | Response Change (single rat) [2]: 20 mmHg and 15 mmHg | % Inhibition [3]: 60% | Average Change [3]: 15 mmHg | Control Before AII (single rat) [3]: 225 mmHg and 235 mmHg | Response After AII (single rat) [3]: 240 mmHg and 250 mmHg | Response Change (single rat) [3]: 15 mmHg | % Inhibition [4]: 45% | Average Change [4]: 20.5 mmHg | Control Before AII (single rat) [4]: 207 mmHg and 225 mmHg | Response After AII (single rat) [4]: 233 mmHg and 240 mmHg | Response Change (single rat) [4]: 26 mmHg and 15 mmHg | % Inhibition [5]: 33% | Average Change [5]: 25 mmHg | Control Before AII (single rat) [5]: 195 mmHg and 225 mmHg | Response After AII (single rat) [5]: 225 mmHg and 245 mmHg | Response Change (single rat) [5]: 30 mmHg and 20 mmHg | % Inhibition [6]: 53% | Average Change [6]: 17.5 mmHg | Control Before AII (single rat) [6]: 220 mmHg and 230 mmHg | Response After AII (single rat) [6]: 240 mmHg and 245 mmHg | Response Change (single rat) [6]: 20 mmHg and 15 mmHg | % Inhibition [7]: 48% | Average Change [7]: 19.5 mmHg | Control Before AII (single rat) [7]: 220 mmHg and 230 mmHg | Response After AII (single rat) [7]: 245 mmHg and 244 mmHg | Response Change (single rat) [7]: 25 mmHg and 14 mmHg | % Inhibition [8]: 53% | Average Change [8]: 18.5 mmHg | Control Before AII (single rat) [8]: 218 mmHg and 250 mmHg | Response After AII (single rat) [8]: 245 mmHg and 260 mmHg | Response Change (single rat) [8]: 27 mmHg and 10 mmHg | % Inhibition [9]: 42% | Average Change [9]: 22.5 mmHg | Control Before AII (single rat) [9]: 220 mmHg and 240 mmHg | Response After AII (single rat) [9]: 245 mmHg and 260 mmHg | Response Change (single rat) [9]: 25 mmHg and 20 mmHg | % Inhibition [10]: 29% | Average Change [10]: 27.5 mmHg | Control Before AII (single rat) [10]: 220 mmHg and 230 mmHg | Response After AII (single rat) [10]: 250 mmHg and 255 mmHg | Response Change (single rat) [10]: 30 mmHg and 25 mmHg | % Inhibition [11]: 23% | Average Change [11]: 30 mmHg | Control Before AII (single rat) [11]: 205 mmHg and 225 mmHg | Response After AII (single rat) [11]: 240 mmHg and 250 mmHg | Response Change (single rat) [11]: 35 mmHg and 25 mmHg | % Inhibition [12]: 42% | Average Change [12]: 22.5 mmHg | Control Before AII (single rat) [12]: 205 mmHg and 225 mmHg | Response After AII (single rat) [12]: 225 mmHg and 250 mmHg | Response Change (single rat) [12]: 20 mmHg and 25 mmHg | % Inhibition [13]: 10% | Average Change [13]: 35 mmHg | Control Before AII (single rat) [13]: 220 mmHg and 225 mmHg | Response After AII (single rat) [13]: 260 mmHg and 255 mmHg | Response Change (single rat) [13]: 40 mmHg and 30 mmHg | % Inhibition [14]: 10% | Average Change [14]: 35 mmHg | Control Before AII (single rat) [14]: 220 mmHg and 225 mmHg | Response After AII (single rat) [14]: 255 mmHg and 260 mmHg | Response Change (single rat) [14]: 35 mmHg

CCCCc1nc2ccc(C3CC4C(O3)ON(c3ccccc3)C4c3ccccc3)cc2c(=O)n1Cc1ccc(-c2ccccc2-c2nnn[nH]2)cc1 (stereo not drawn) [Example 10, (3α, 3aβ, 5β, 6aβ)-2-Butyl-6-(hexahydro-2,3-diphenylfuro[3,2-d]isoxazol-5-yl)-3-[[2'-(1H-tetrazol-5-yl)[1,1'-biphenyl]-4-yl]methyl]-4(3H)-quinazolinone]
% Inhibition [15]: 39% | Average Change [15]: 33.5 mmHg | Control Before AII (single rat) [15]: 248 mmHg and 230 mmHg | Response After AII (single rat) [15]: 290 mmHg and 255 mmHg | Response Change (single rat) [15]: 42 mmHg and 25 mmHg | % Inhibition [16]: 41% | Average Change [16]: 42.5 mmHg | Control Before AII (single rat) [16]: 250 mmHg and 220 mmHg | Response After AII (single rat) [16]: 295 mmHg and 260 mmHg | Response Change (single rat) [16]: 45 mmHg and 40 mmHg | % Inhibition [17]: 82% | Average Change [17]: 10 mmHg | Control Before AII (single rat) [17]: 265 mmHg and 235 mmHg | Response After AII (single rat) [17]: 270 mmHg and 250 mmHg | Response Change (single rat) [17]: 5 mmHg and 15 mmHg | % Inhibition [18]: 82% | Average Change [18]: 10 mmHg | Control Before AII (single rat) [18]: 235 mmHg and 230 mmHg | Response After AII (single rat) [18]: 250 mmHg and 235 mmHg | Response Change (single rat) [18]: 15 mmHg and 5 mmHg | % Inhibition [19]: 77% | Average Change [19]: 12.5 mmHg | Control Before AII (single rat) [19]: 210 mmHg and 240 mmHg | Response After AII (single rat) [19]: 225 mmHg and 250 mmHg | Response Change (single rat) [19]: 15 mmHg and 10 mmHg | % Inhibition [20]: 73% | Average Change [20]: 15 mmHg | Control Before AII (single rat) [20]: 215 mmHg and 220 mmHg | Response After AII (single rat) [20]: 235 mmHg and 230 mmHg | Response Change (single rat) [20]: 20 mmHg and 10 mmHg | % Inhibition [21]: 82% | Average Change [21]: 10 mmHg | Control Before AII (single rat) [21]: 220 mmHg and 215 mmHg | Response After AII (single rat) [21]: 235 mmHg and 220 mmHg | Response Change (single rat) [21]: 15 mmHg and 5 mmHg | % Inhibition [22]: 73% | Average Change [22]: 15 mmHg | Control Before AII (single rat) [22]: 210 mmHg and 200 mmHg | Response After AII (single rat) [22]: 220 mmHg | Response Change (single rat) [22]: 10 mmHg and 20 mmHg | % Inhibition [23]: 86% | Average Change [23]: 10 mmHg | Control Before AII (single rat) [23]: 265 mmHg and 230 mmHg | Response After AII (single rat) [23]: 270 mmHg and 245 mmHg | Response Change (single rat) [23]: 5 mmHg and 15 mmHg | % Inhibition [24]: 72% | Average Change [24]: 20 mmHg | Control Before AII (single rat) [24]: 230 mmHg and 235 mmHg | Response After AII (single rat) [24]: 250 mmHg and 255 mmHg | Response Change (single rat) [24]: 20 mmHg | % Inhibition [25]: 65% | Average Change [25]: 25 mmHg | Control Before AII (single rat) [25]: 200 mmHg and 215 mmHg | Response After AII (single rat) [25]: 230 mmHg and 235 mmHg | Response Change (single rat) [25]: 30 mmHg and 20 mmHg | % Inhibition [26]: 79% | Average Change [26]: 15 mmHg | Control Before AII (single rat) [26]: 210 mmHg and 220 mmHg | Response After AII (single rat) [26]: 225 mmHg and 235 mmHg | Response Change (single rat) [26]: 15 mmHg | % Inhibition [27]: 79% | Average Change [27]: 15 mmHg | Control Before AII (single rat) [27]: 215 mmHg | Response After AII (single rat) [27]: 235 mmHg and 225 mmHg | Response Change (single rat) [27]: 20 mmHg and 10 mmHg | % Inhibition [28]: 79% | Average Change [28]: 15 mmHg | Control Before AII (single rat) [28]: 210 mmHg | Response After AII (single rat) [28]: 230 mmHg and 220 mmHg | Response Change (single rat) [28]: 20 mmHg and 10 mmHg
